Data taken from patent publication EP4748839A1 (CSPC Zhongqi Pharmaceutical Technology (Shijiazhuang) Co., …, priority 2023, dated 2025).

Target: T1, GLP-1R (Homo sapiens, UniProt P43220)
T1 construct: expressed in transfected cells
Assay: GLP-1R agonistic effect in GLP1R-cAmp-Luc cells (luciferase reporter; titled 'Enzymatic assay')
Assay type: cell-based
Settings: for EC50: 4 hours incubation, firefly luciferin signal; for EC50 of Positive reference / EC50 of Compound of the Present Application: Positive reference is PF-06882961
Experimental: The GLP-1R agonistic effects of the test compounds were determined using GLP1R-cAmp-Luc cells. 1) The test compound was dissolved in DMSO and mixed well until the test compound was completely dissolved. The test compounds were dissolved in DMSO to prepare 10 mM stock solutions. All compounds were diluted with DMEM medium (high sugar, Puromycin^+, Hygromycin B^+) to an initial concentration of 1250 nM, and then subjected to 5-fold serial dilution to a total of 7 concentration gradients. The GLP1R-cAmp-Luc cells were seeded in white-wall 96-well cell culture plates at a density of 1×10^5/mL, with 90 µL cell suspension per well; the test compound at each of the 7 concentration gradients was added at 10 µL per well, with the actual initial working concentration of 125 nM; and the cells were placed in a 37 °C, 5% CO2 cell incubator for 4 hours; 2) 100 µL of luciferin potassium salt solution diluted to 300 µg/mL in PBS was added to each well at a working concentration of 150 µg/mL and incubated at room temperature for 30 minutes; 3) fluorescence signals of firefly luciferin were measured with a multifunctional microplate reader (PerkinElmer, Nivo); and the fluorescence values were processed using GraphPad Prism software to calculate EC50 values.

T1 sequence (P43220 24-463, species assumed): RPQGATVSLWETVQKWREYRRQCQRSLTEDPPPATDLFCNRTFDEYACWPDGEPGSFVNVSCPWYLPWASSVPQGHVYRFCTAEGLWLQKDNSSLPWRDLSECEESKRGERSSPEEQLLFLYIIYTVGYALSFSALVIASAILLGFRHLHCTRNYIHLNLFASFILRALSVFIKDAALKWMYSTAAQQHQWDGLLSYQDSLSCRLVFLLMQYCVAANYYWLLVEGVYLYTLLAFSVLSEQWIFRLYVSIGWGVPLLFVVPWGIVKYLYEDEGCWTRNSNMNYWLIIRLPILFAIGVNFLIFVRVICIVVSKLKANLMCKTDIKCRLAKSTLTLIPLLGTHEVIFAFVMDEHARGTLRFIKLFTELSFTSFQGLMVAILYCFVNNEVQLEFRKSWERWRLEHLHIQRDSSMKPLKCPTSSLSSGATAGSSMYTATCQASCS

EC50 [nM] | EC50 of Positive reference / EC50 of Compound of the Present Application | Structure (SMILES)
≤ 1 | Ratio ≥10 | COc1cc(C(=O)O)cc2c1nc(Cc1c(F)cc(-c3ccnc(OCc4ccc(Cl)cc4OC(F)F)n3)c3c1CCO3)n2C[C@@H]1CCO1 [Compound 113, (S)-2-((7-(2-((2-difluoromethoxy-4-chlorobenzyl)oxy)pyrimidin-4-yl)-5-fluoro-2,3-dihydrobenzofuran-4-yl)methyl)-4-methoxy-1-(oxetan-2-ylmethyl)-1H-benzo[d]imidazole-6-carboxylic acid]
1 to 5 | – | COc1cc(C(=O)O)cc2c1nc(Cc1c(F)cc(-c3cccc(OCc4ccc(Cl)cc4F)c3)c3c1CCO3)n2C[C@@H]1CCO1 [Compound 107, (S)-2-((7-(3-((4-chloro-2-fluorobenzyl)oxy)phenyl)-5-fluoro-2,3-dihydrobenzofuran-4-yl)methyl)-4-methoxy-1-(oxetan-2-ylmethyl)-1H-benzo[d]imidazole-6-carboxylic acid]
≤ 1 | Ratio ≥10 | COc1cc(C(=O)O)cc2c1nc(Cc1c(F)cc(-c3ccnc(OCc4ccc(C5COC5)cc4F)n3)c3c1CCO3)n2C[C@@H]1CCO1 [Compound 120, (S)-2-((7-(2-((2-fluoro-4-(oxetan-3-yl)benzyl)oxy)pyrimidin-4-yl)-5-fluoro-2,3-dihydrobenzofuran-4-yl)methyl)-4-methoxy-1-(oxetan-2-ylmethyl)-1H-benzo[d]imidazole-6-carboxylic acid]
1 to 5 | – | O=C(O)c1cc(OCC(F)F)c2nc(Cc3c(F)cc(-c4cccc(OCc5ccc(Cl)cc5OC(F)F)n4)c4c3OCO4)n(CC3(CF)CC3)c2c1 [Compound 86, 2-((7-(6-((4-Chloro-2-(difluoromethoxy)benzyl)oxy)pyridin-2-yl)-5-fluoro-benzo[d][1,3]dioxolan-4-yl)methyl)-4-(2,2-difluoroethoxy)-1-((1-(fluoromethyl)cyclopropyl)methyl)-1H-benzo[d]imidazole-6-carboxylic acid]
1 to 5 | – | N#CCC1(Cn2c(Cc3c(Cl)cc(-c4cccc(OCc5ccc(C#N)cc5F)n4)c4c3CCO4)nc3ccc(C(=O)O)cc32)CC1 [Compound 18, 2-((5-chloro-7-(6-((4-cyano-2-fluorobenzyl)oxy)pyridin-2-yl)-2,3-dihydrobenzofuran-4-yl)methyl)-1-((1-(cyanomethyl)cyclopropyl)methyl)-1H-benzo[d]imidazole-6-carboxylic acid]
≤ 1 | Ratio ≥10 | N#Cc1ccc(COc2cccc(-c3cc(Cl)c(Cc4nc5ccc(C(=O)O)cc5n4C[C@@H]4CCO4)c4c3OCC4)n2)c(F)c1 [Compound 7, (S)-2-((5-chloro-7-(6-((4-cyano-2-fluorobenzyl)oxy)pyridin-2-yl)-2,3-dihydrobenzofuran-4-yl)methyl)-1-(oxetan-2-ylmethyl)-1H-benzo[d]imidazole-6-carboxylic acid]
≤ 1 | Ratio ≥10 | COc1cc(C(F)(F)F)ccc1COc1nc(-c2cc(F)c(Cc3nc4c(OC)cc(C(=O)O)cc4n3C[C@@H]3CCO3)c3c2OCC3)ccc1F [Compound 116, (S)-2-((7-(5-fluoro-6-((2-methoxy-4-(trifluoromethyl)benzyl)oxy)pyridin-2-yl)-5-fluoro-2,3-dihydrobenzofuran-4-yl)methyl)-4-methoxy-1-(oxetan-2-ylmethyl)-1H-benzo[d]imidazole-6-carboxylic acid]
1 to 5 | – | COc1cc(C(=O)O)cc2c1nc(Cc1c(F)cc(-c3nccc(OCc4ccc(C5COC5)cc4F)n3)c3c1CCO3)n2C[C@@H]1CCO1 [Compound 127, (S)-2-((7-(4-((2-fluoro-4-(oxetan-3-yl)benzyl)oxy)pyrimidin-2-yl)-5-fluoro-2,3-dihydrobenzofuran-4-yl)methyl)-4-methoxy-1-(oxetan-2-ylmethyl)-1H-benzo[d]imidazole-6-carboxylic acid]
≤ 1 | Ratio ≥10 | COc1cc(C(=O)O)cc2c1nc(Cc1c(F)cc(-c3ccc(F)c(OCc4ccc(C#N)cc4F)n3)c3c1CCO3)n2C[C@@H]1CCO1 [Compound 115]
≤ 1 | Ratio ≥10 | COc1cc(C(=O)O)cc2c1nc(Cc1c(F)cc(-c3cccc(OCc4ccc(Cl)cc4OC(F)F)n3)c3c1CCO3)n2C[C@@H]1CCO1 [Compound 84, (S)-2-((7-(6-((4-chloro-2-(difluoromethoxy)benzyl)oxy)pyridin-2-yl)-5-fluoro-2,3-dihydrobenzofuran-4-yl)methyl)-4-methoxy-1-(oxetan-2-ylmethyl)-1H-benzo[d]imidazole-6-carboxylic acid]
5 to 10 | – | N#Cc1ccc(COc2cccc(-c3ccc(Cc4nc5ccc(C(=O)O)cc5n4C[C@@H]4CCO4)c4c3OCO4)n2)c(F)c1 [Compound 1, (S)-2-((7-(6-((4-cyano-2-fluorobenzyl)oxy)pyridin-2-yl)benzo[d][1,3]dioxolan-4-yl)methyl)-1-(oxetan-2-ylmethyl)-1H-benzo[d]imidazole-6-carboxylic acid]
≤ 1 | Ratio ≥10 | COc1cc(C(=O)O)cc2c1nc(Cc1c(F)cc(-c3ccc(F)c(OCc4ccc(C5COC5)cc4F)n3)c3c1CCO3)n2C[C@@H]1CCO1 [Compound 126, (S)-2-((7-(5-fluoro-6-((2-fluoro-4-(oxetan-3-yl)benzyl)oxy)pyridin-2-yl)-5-fluoro-2,3-dihydrobenzofuran-4-yl)methyl)-4-methoxy-1-(oxetan-2-ylmethyl)-1H-benzo[d]imidazole-6-carboxylic acid]
≤ 1 | Ratio ≥10 | COc1cc(C(=O)O)cc2c1nc(Cc1c(F)cc(-c3ccnc(OCc4ccc(Cl)cc4F)n3)c3c1CCO3)n2C[C@@H]1CCO1 [Compound 106, (S)-2-((7-(2-((4-chloro-2-fluorobenzyl)oxy)pyrimidin-4-yl)-5-fluoro-2,3-dihydrobenzofuran-4-yl)methyl)-4-methoxy-1-(oxetan-2-ylmethyl)-1H-benzo[d]imidazole-6-carboxylic acid]
≤ 1 | Ratio ≥10 | COc1cc(C(F)(F)F)ccc1COc1ncc(F)c(-c2cc(F)c(Cc3nc4c(OC)cc(C(=O)O)cc4n3C[C@@H]3CCO3)c3c2OCC3)n1 [Compound 130, (S)-2-((7-(5-fluoro-2-((2-methoxy-4-(trifluoromethyl)benzyl)oxy)pyrimidin-4-yl)-5-fluoro-2,3-dihydrobenzofuran-4-yl)methyl)-4-methoxy-1-(oxetan-2-ylmethyl)-1H-benzo[d]imidazole-6-carboxylic acid]
≤ 1 | Ratio ≥10 | COc1cc(C(F)(F)F)ccc1COc1ccnc(-c2cc(F)c(Cc3nc4c(OC)cc(C(=O)O)cc4n3C[C@@H]3CCO3)c3c2OCC3)n1 [Compound 125, (S)-2-((7-(4-((2-methoxy-4-(trifluoromethyl)benzyl)oxy)pyrimidin-2-yl)-5-fluoro-2,3-dihydrobenzofuran-4-yl)methyl)-4-methoxy-1-(oxetan-2-ylmethyl)-1H-benzo[d]imidazole-6-carboxylic acid]
≤ 1 | Ratio ≥10 | O=C(O)c1ccc2nc(Cc3c(F)cc(-c4cccc(OCc5ccc(Cl)cc5F)n4)c4c3CCO4)n(C[C@@H]3CCO3)c2c1 [Compound 12, (S)-2-((7-(6-((4-chloro-2-fluorobenzyl)oxy)pyridin-2-yl)-5-fluoro-2,3-dihydrobenzofuran-4-yl)methyl)-1-(oxetan-2-ylmethyl)-1H-benzo[d]imidazole-6-carboxylic acid]
≤ 1 | Ratio ≥10 | COc1cc(C(=O)O)cc2c1nc(Cc1c(F)cc(-c3ccc(F)c(OCc4ccc(Cl)cc4OC(F)F)n3)c3c1CCO3)n2C[C@@H]1CCO1 [Compound 114]
≤ 1 | Ratio ≥10 | COc1cc(C(=O)O)cc2c1nc(Cc1c(F)cc(-c3nc(OCc4ccc(C5COC5)cc4F)ncc3F)c3c1CCO3)n2C[C@@H]1CCO1 [Compound 128, (S)-2-((7-(5-fluoro-2-((2-fluoro-4-(oxetan-3-yl)benzyl)oxy)pyrimidin-4-yl)-5-fluoro-2,3-dihydrobenzofuran-4-yl)methyl)-4-methoxy-1-(oxetan-2-ylmethyl)-1H-benzo[d]imidazole-6-carboxylic acid]

Structure (SMILES) | EC50 [nM] | EC50 of Positive reference / EC50 of Compound of the Present Application
COc1cc(C(=O)O)cc2c1nc(Cc1c(F)cc(-c3nc(OCc4ccc(Cl)cc4OC(F)F)ncc3F)c3c1CCO3)n2C[C@@H]1CCO1 [Compound 131] | ≤ 1 | Ratio ≥10
COc1cc(C(F)(F)F)ccc1COc1cccc(-c2ccc(Cc3nc4c(OC)cc(C(=O)O)cc4n3C[C@@H]3CCO3)c3c2OCCO3)n1 [Compound 62, (S)-4-methoxy-2-((8-(6-((2-methoxy-4-(trifluoromethyl)benzyl)oxy)pyridin-2-yl)-2,3-dihydrobenzo[b][1,4]dioxan-5-yl)methyl)-1-(oxetan-2-ylmethyl)-1H-benzo[d]imidazole-6-carboxylic acid] | 1 to 5 | –
